Test results published in PubChem BioAssay (NCI).
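In this assay, cells in 96-well plates receive the compound at five concentrations for 48 hours. Endpoints are linearly interpolated between the surrounding concentrations. TGI: concentration producing complete growth inhibition.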

Assays:
Assay in all cases: NCI anticancer screen, dose series, 48 h
UACC-257 melanoma = system: UACC-257 melanoma
HCC-2998 colon = system: HCC-2998 colon
A498 renal = system: A498 renal
K-562 leukemia = system: K-562 leukemia
U251 CNS = system: U251 CNS
HT29 colon = system: HT29 colon
HCT-116 colon = system: HCT-116 colon
HCT-15 colon = system: HCT-15 colon
SF-268 CNS = system: SF-268 CNS
SNB-75 CNS = system: SNB-75 CNS
PC-3 prostate = system: PC-3 prostate
MDA-MB-435 = system: MDA-MB-435
HS 578T breast = system: HS 578T breast
MDA-MB-231 breast = system: MDA-MB-231 breast
COLO 205 colon = system: COLO 205 colon
MDA-N = system: MDA-N
SW-620 colon = system: SW-620 colon
NCI-H522 lung = system: NCI-H522 lung
NCI/ADR-RES ovarian = system: NCI/ADR-RES ovarian
NCI-H226 lung = system: NCI-H226 lung
OVCAR-8 ovarian = system: OVCAR-8 ovarian
A549 NSCLC = system: A549 NSCLC
UO-31 renal = system: UO-31 renal
SF-539 CNS = system: SF-539 CNS
T-47D breast = system: T-47D breast
SF-295 CNS = system: SF-295 CNS
NCI-H460 lung = system: NCI-H460 lung
MALME-3M melanoma = system: MALME-3M melanoma
M14 melanoma = system: M14 melanoma
MCF7 breast = system: MCF7 breast
OVCAR-5 ovarian = system: OVCAR-5 ovarian
ACHN renal = system: ACHN renal
SNB-19 CNS = system: SNB-19 CNS
CCRF-CEM leukemia = system: CCRF-CEM leukemia
MOLT-4 leukemia = system: MOLT-4 leukemia
SK-MEL-2 melanoma = system: SK-MEL-2 melanoma
CAKI-1 renal = system: CAKI-1 renal
KM12 colon = system: KM12 colon
SK-OV-3 ovarian = system: SK-OV-3 ovarian
RXF 393 renal = system: RXF 393 renal
SK-MEL-5 melanoma = system: SK-MEL-5 melanoma
NCI-H23 lung = system: NCI-H23 lung
EKVX NSCLC = system: EKVX NSCLC
IGROV1 ovarian = system: IGROV1 ovarian
786-0 renal = system: 786-0 renal
RPMI-8226 leukemia = system: RPMI-8226 leukemia
TK-10 renal = system: TK-10 renal
SR leukemia = system: SR leukemia
HL-60(TB) leukemia = system: HL-60(TB) leukemia
HOP-92 NSCLC = system: HOP-92 NSCLC
UACC-62 melanoma = system: UACC-62 melanoma
OVCAR-4 ovarian = system: OVCAR-4 ovarian
DU-145 prostate = system: DU-145 prostate
HOP-62 NSCLC = system: HOP-62 NSCLC
SK-MEL-28 melanoma = system: SK-MEL-28 melanoma
SN12C renal = system: SN12C renal
OVCAR-3 ovarian = system: OVCAR-3 ovarian
LOX IMVI melanoma = system: LOX IMVI melanoma

Measured: TGI

Cc1ccc(S(=O)(=O)NNC(=O)Nc2ccc(Cl)cc2)cc1
99.7 µM: SNB-75 CNS
not listed: OVCAR-3 ovarian | LOX IMVI melanoma
> 100 µM: all other assays above

CC1(c2ccccc2)N=C(C(N)=O)c2[nH]cnc2N1 (configuration not stated)
not listed: UO-31 renal | MOLT-4 leukemia
> 100 µM: all other assays above
